Data: patent publication US7550485B2, “Substituted N-heterocycle derivatives and methods of their use” (Wyeth, priority 2003, dated 2009)
pEC50: −log10 of the molar value. Where a name gives a salt, the structure may show the parent alone.

Biological target: T1, hNET (Homo sapiens, UniProt P23975)
T1 construct: expressed in transfected cells
Assay: Norepinephrine (NE) uptake assay in MDCK-Net6 cells stably transfected with human hNET
Assay type: cell-based
Conditions: [3H]NE uptake; for inhibition at 1 µM: MDCK-Net6, 1 μM test compound; for inhibition at 30 µM: MDCK-Net6, 30 μM test compound (stated in cell); for pEC50: test range 1 to 10,000 nM
Procedure, shortened: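 MDCK-Net6 cells preincubated 20 min at 37 °C with compound (1 to 10,000 nM) in HEPES buffer pH 7.4 with pargyline and ascorbate, then 5 min [3H]NE uptake (120 nM final). Lysed cells counted by scintillation; 1 μM desipramine defined minimum uptake; EC50 from logistic fit of pooled data.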

T1 sequence (P23975 whole entry): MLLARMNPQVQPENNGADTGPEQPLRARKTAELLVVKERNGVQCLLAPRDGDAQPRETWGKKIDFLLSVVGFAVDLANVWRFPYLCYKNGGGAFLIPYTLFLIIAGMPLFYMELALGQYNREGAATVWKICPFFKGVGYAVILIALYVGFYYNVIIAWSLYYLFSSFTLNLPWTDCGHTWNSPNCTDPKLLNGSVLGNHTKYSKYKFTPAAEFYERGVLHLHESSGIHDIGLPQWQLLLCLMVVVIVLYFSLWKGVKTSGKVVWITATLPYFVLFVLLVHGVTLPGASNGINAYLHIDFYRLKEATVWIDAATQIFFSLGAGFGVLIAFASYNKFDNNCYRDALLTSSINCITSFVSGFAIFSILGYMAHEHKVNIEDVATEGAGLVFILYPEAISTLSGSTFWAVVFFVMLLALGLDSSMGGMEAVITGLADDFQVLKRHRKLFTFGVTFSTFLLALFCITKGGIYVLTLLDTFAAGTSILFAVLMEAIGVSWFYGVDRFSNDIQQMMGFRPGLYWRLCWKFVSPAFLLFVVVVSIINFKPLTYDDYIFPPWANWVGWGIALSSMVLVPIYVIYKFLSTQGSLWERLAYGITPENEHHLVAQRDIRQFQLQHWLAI

Structure (SMILES)	inhibition at 1 µM	also measured
CCCC(O)(CCC)C(CN1CCC(N)CC1)c1cccc(Cl)c1 (centres unmarked) [Example 282, 4-[2-(4-aminopiperidin-1-yl)-1-(3-chlorophenyl)ethyl]heptan-4-ol dihydrochloride]	–	inhibition at 10 µM (MDCK-Net6, 10 μM test compound (stated in cell)): 4.1%
NC1CCN(CC(c2ccc(Oc3ccccc3)cc2)C2(O)CCCCC2)CC1 (centres unmarked) [Example 310, 1-{2-(4-aminopiperidin-1-yl)-1-(4-phenoxyphenyl)ethyl]cyclohexanol dihydrochloride]	44.1%	–
OC1(C(CN2CCC(N3CCCCC3)CC2)c2cccc(Oc3ccccc3)c2)CCCCC1 (centres unmarked) [Example 314, 1-[2-(1,4′-bipiperidin-1′-yl)-1-[3-(phenoxyphenyl)ethyl]cyclohexanoldihydrochloride]	95.5%	–
NC1CCN(CC(c2cccc(Oc3ccccc3)c2)C2(O)CCCCC2)CC1 (centres unmarked) [Example 315, 1-[2-(4-aminopiperidin-1-yl)-1-(3-phenoxyphenyl)ethyl]cyclohexanol dihydrochloride]	75.2%	–
OC1(C(CN2CCC(N3CCCC3)CC2)c2cccc(Oc3ccccc3)c2)CCCCC1 (centres unmarked) [Example 316, 1-[1-(3-phenoxyphenyl)-2-(4-pyrrolidin-1-ylpiperidin-1-yl)ethyl]cyclohexanol dihydrochloride]	67.5%	–
NC1CCN(CC(c2cccc(Cl)c2)C2(O)CCC3CCCCC3C2)CC1 (centres unmarked) [Example 327, 2-[2-(4-aminopiperidin-1-yl-1-(3-chlorophenyl)ethyl]decahydronaphthalen-2-oldihydrochloride]	3%	–
CC1CCC(O)(C(CN2CCC(N)CC2)c2cccc(Cl)c2)CC1 (centres unmarked) [Example 330, 1-[2-(4-aminopiperidin-1-yl)-1-(3-chlorophenyl)ethyl]-4-methylcyclohexanol dihydrochloride]	43.9%	–
COC1CCN(CC(c2ccc(OCc3ccccc3)c(Cl)c2)C2(O)CCCCC2)CC1 (centres unmarked) [Example 339, 1-[1-[4-(benzyloxy)-3-chlorophenyl]-2-(4-methoxypiperidin-1-yl)ethyl]cyclohexanol hydrochloride]	–	inhibition at 30 µM: 94%
COc1ccc2cc(C(CN3CCC(N)CC3)C3(O)CCCCC3)ccc2c1 (centres unmarked) [Example 342, 1-[2-(4-aminopiperidin-1-yl)-1-(6-methoxy-2-naphthyl)ethyl]cyclohexanol dihydrochloride]	59%	pEC50: 6.41
CNC1CCN(CC(c2ccc3cc(OC)ccc3c2)C2(O)CCCCC2)CC1 (centres unmarked) [Example 344, 1-{1-(6-methoxy-2-naphthyl)-2-[4-(methylamino)piperidin-1-yl]ethyl}cyclohexanol dihydrochloride]	52%	–
COc1ccc2cc(C(CN3CCC(N4CCCC4)CC3)C3(O)CCCCC3)ccc2c1 (centres unmarked) [Example 345, 1-[1-(6-methoxy-2-naphthyl)-2-(4-pyrrolidin-1-ylpiperidin-1-yl)ethyl]cyclohexanol dihydrochloride]	65%	pEC50: 6.28
COc1ccc2cc(C(CN3CCC(N4CCCCC4)CC3)C3(O)CCCCC3)ccc2c1 (centres unmarked) [Example 346, 1-[2-(1,4′-bipiperidin-1′-yl)-1-(6-methoxy-2-naphthyl)ethyl]cyclohexanol dihydrochloride]	81%	pEC50: 6.72
N[C@@H]1CCN(CC(c2ccc3ccccc3c2)C2(O)CCCCC2)C1 (stereo partly drawn) [Example 374, 1-[2-[(3R)-3-aminopyrrolidin-1-yl]-1-(2-naphthyl)ethyl]cyclohexanol dihydrochloride]	46%	–
CN[C@@H]1CCN(CC(c2ccc3ccccc3c2)C2(O)CCCCC2)C1 (stereo partly drawn) [Example 376, 1-[2-[(3R)-3-(methylamino)pyrrolidin-1-yl]-1-(2-naphthyl)ethyl]cyclohexanol dihydrochloride]	30%	–
N[C@@H]1CCN(CC(c2cccc3ccccc23)C2(O)CCCCC2)C1 (stereo partly drawn) [Example 377, 1-[2-[(3R)-3-aminopyrrolidin-1-yl]-1-(1-naphthyl)ethyl]cyclohexanol dihydrochloride]	–	inhibition at 30 µM: 82%
CN[C@@H]1CCN(CC(c2cccc3ccccc23)C2(O)CCCCC2)C1 (stereo partly drawn) [Example 379, 1-[2-[(3R)-3-(methylamino)pyrrolidin-1-yl]-1-(1-naphthyl)ethyl]cyclohexanol dihydrochloride]	19%	–
N[C@@H]1CCN(CC(c2ccc(OCc3ccccc3)cc2)C2(O)CCCCC2)C1 (stereo partly drawn) [Example 380, 1-{2-[(3R)-3-aminopyrrolidin-1-yl]-1-[4-(benzyloxy)phenyl]ethyl}cyclohexanol dihydrochloride]	20%	–
CN(C)[C@@H]1CCN(CC(c2ccc(OCc3ccccc3)cc2)C2(O)CCCCC2)C1 (stereo partly drawn) [Example 381, 1-{1-[4-(benzyloxy)phenyl]-2-[(3R)-3-(dimethylamino)pyrrolidin-1-yl]ethyl}cyclohexanol dihydrochloride]	–	inhibition at 30 µM: 95%
CN[C@@H]1CCN(CC(c2ccc(OCc3ccccc3)cc2)C2(O)CCCCC2)C1 (stereo partly drawn) [Example 382, 1-{1-[4-(benzyloxy)phenyl]-2-[(3R)-3-(methylamino)pyrrolidin-1-yl]ethyl}cyclohexanol dihydrochloride]	50%	–
N[C@@H]1CCN(CC(c2ccc(OCc3ccccc3)c(Cl)c2)C2(O)CCCCC2)C1 (stereo partly drawn) [Example 383, 1-{2-[(3R)-3-aminopyrrolidin-1-yl]-1-[4-(benzyloxy)-3-chlorophenyl]ethyl}cyclohexanol dihydrochloride]	90%	–

Further lines, with some results ahead:

inhibition at 1 µM	Structure (SMILES)	also measured
91.1%	OC1(C(CN2CCC(N3CCCCC3)CC2)c2ccc(OC(F)(F)F)cc2)CCCCC1 (centres unmarked) [Example 284, 1-{2-(1,4′-bipiperidin-1′-yl)-1-[4-(trifluoromethoxy)phenyl]ethyl}cyclohexanol dihydrochloride]	–
18.7%	NC1CCN(CC(c2ccc(OC(F)(F)F)cc2)C2(O)CCCCC2)CC1 (centres unmarked) [Example 303, 1-{2-(4-aminopiperidin-1-yl)-1-[4-(trifluoromethoxy)phenyl]ethyl}cyclohexanol dihydrochloride]	–
49.9%	NC1CCN(CC(c2ccc(OC(F)(F)F)cc2)C2(O)CCC2)CC1 (centres unmarked) [Example 305, 1-{2-(4-aminopiperidin-1-yl)-1-[4-(trifluoromethoxy)phenyl]ethyl}cyclobutanol dihydrochloride]	–
21.2%	CN(C)C1CCN(CC(c2ccc3ccccc3c2)C2(O)CCCCC2)CC1 (centres unmarked) [Example 317, 1-[2-[4-(dimethylamino)piperidin-1-yl]-1-(2-naphthyl)ethyl]cyclohexanol dihydrochloride]	–
84%	COc1ccc(C(CN2CCC(N(C)C)CC2)C2(O)CCCCC2)cc1Br (centres unmarked) [Example 318, 1-{1-(3-bromo-4-methoxyphenyl)-2-[4-(dimethylamino)piperidin-1-yl]ethyl}cyclohexanol dihydrochloride]	–
95.4%	CN(C)C1CCN(CC(c2cccc(Br)c2)C2(O)CCCCC2)CC1 (centres unmarked) [Example 319, 1-{1-(3-bromophenyl)-2-[4-(dimethylamino)piperidin-1-yl]ethyl}cyclohexanol dihydrochloride]	–
88.1%	CN(C)C1CCN(CC(c2ccc(Cl)c(Cl)c2)C2(O)CCCCC2)CC1 (centres unmarked) [Example 320, 1-{1-(3,4-dichlorophenyl)-2-[4-(dimethylamino)piperidin-1-yl]ethyl}cyclohexanol dihydrochloride]	–
66.1%	CN(C)C1CCN(CC(c2cccc(C(F)(F)F)c2)C2(O)CCCCC2)CC1 (centres unmarked) [Example 321, 1-{2-[4-(dimethylamino)piperidin-1-yl]-1-[3-(trifluoromethyl)phenyl]ethyl}cyclohexanol dihydrochloride]	–
48%	COc1ccc2cc(C(CN3CCC(N(C)C)CC3)C3(O)CCCCC3)ccc2c1 (centres unmarked) [Example 343, 1-[2-[4-(dimethylamino)piperidin-1-yl]-1-(6-methoxy-2-naphthyl)ethyl]cyclohexanol dihydrochloride]	–
86%	CNC1CCN(C[C@H](c2cccc(OC(F)(F)F)c2)C2(O)CCCCC2)CC1 [Example 359, 1-{(1S)-2-[4-(methylamino)piperidin-1-yl]-1-[3-(trifluoromethoxy)phenyl]ethyl}cyclohexanol dihydrochloride]	pEC50: 6.54
88%	CN(C)C1CCN(C[C@H](c2cccc(OC(F)(F)F)c2)C2(O)CCCCC2)CC1 [Example 360, 1-{(1S)-2-[4-(dimethylamino)piperidin-1-yl]-1-[3-(trifluoromethoxy)phenyl]ethyl}cyclohexanol dihydrochloride]	pEC50: 6.66
67%	OC1(C(CN2CCC(N3CCOCC3)CC2)c2cccc(OC(F)(F)F)c2)CCCCC1 (centres unmarked) [Example 361, 1-{2-(4-morpholin-4-ylpiperidin-1-yl)-1-[3-(trifluoromethoxy)phenyl]ethyl}cyclohexanol dihydrochloride]	pEC50: 6.19
94%	OC1([C@H](CN2CCC(N3CCCC3)CC2)c2cccc(OC(F)(F)F)c2)CCCCC1 [Example 365, 1-{(1S)-2-(4-pyrrolidin-1-ylpiperidin-1-yl)-1-[3-(trifluoromethoxy)phenyl]ethyl}cyclohexanol dihydrochloride]	pEC50: 7.11
99%	OC1([C@H](CN2CCC(N3CCCCC3)CC2)c2cccc(OC(F)(F)F)c2)CCCCC1 [Example 366, 1-{(1S)-2-(1,4′-bipiperidin-1′-yl)-1-[3-(trifluoromethoxy)phenyl]ethyl}cyclohexanol dihydrochloride]	pEC50: 6.96
39%	CN(C)[C@@H]1CCN(CC(c2ccc3ccccc3c2)C2(O)CCCCC2)C1 (stereo partly drawn) [Example 375, 1-[2-[(3R)-3-(dimethylamino)pyrrolidin-1-yl]-1-(2-naphthyl)ethyl]cyclohexanol dihydrochloride]	–
28%	CN(C)[C@@H]1CCN(CC(c2cccc3ccccc23)C2(O)CCCCC2)C1 (stereo partly drawn) [Example 378, 1-[2-[(3R)-3-(dimethylamino)pyrrolidin-1-yl]-1-(1-naphthyl)ethyl]cyclohexanol dihydrochloride]	–
